Test results as given in patent publication US20230076820A1, “Substituted Pyrazole Compounds and Methods of Using Them for Treatment of Hyperproliferative Diseases” (Bantam Pharmaceutical, LLC, priority 2016, published 2023).

System: HCT116 cells
Assay: Total glutathione levels (GSH-Glo), HCT116
Type: cell-based
Procedure: Measurement of glutathione levels following treatment using three cell lines: BJAB, HCT116, and normal human lung fibroblasts (NHLF) were maintained in RPMI (Wisent), McCoy’s (Wisent) or FGM-2 (Lonza) medium, respectively. For total glutathione measurement, 5000 cells /well (BJAB or HCT116) or 10,000 cells/well (NHLF) were transferred to clear-bottom 96-well assay plates (Thermo Fisher) in a volume of 50 µL. Plates were incubated overnight at 37° C. in 5% CO2, in an unsealed plastic bag with damp paper. Test compound was serially diluted in medium plus 0.4% DMSO, and 50 µL/well of each dilution was transferred to the assay plate. Assay plates were incubated at 37° C. in 5% CO2 in unsealed plastic bag with damp paper for the indicated time. For total glutathione measurement, GSH-Glo™ reagent (Promega) was prepared by diluting provided Luciferin-NT (1:100), Glutathione S-Transferase (1:100), and DTT (1 mM final) to GSH-Glo™ Reaction buffer, and 100 µL was added to assay plates, followed by 30 min incubation at room temperature, and then 100 µL Luciferin Detection Reagent was added. […] Luminescence was measured using Tecan Infinite 200Pro.
Effect on Glutathione levels: BJAB and HCT116 cells were maintained in RPMI medium (Wisent) or McCoy’s medium (Wisent), respectively. […] Total glutathione levels were determined according to the procedure described above.

CC1=CC(=O)c2ccccc2C1=O [menadione, Menadione] was tested, and the “glutathione levels after treatment” value (HCT116, FIG. 3) was “reduction in glutathione levels” and the “glutathione levels in the presence or absence of N-acetyl cysteine” value (HCT116, with or without N-acetyl cysteine, FIG. 3) was “N-acetyl cysteine in the media prevents the reduction of glutathione”.
